According to US11395490B2, “Herbicidal composition” (SYNGENTA CROP PROTECTION, LLC, priority 2005, dated 2022):

How the values were obtained:
Assay type in all cases: in vivo
Settings in all cases: 21 days after treatment
[1] = tested on: Panicum millenacearum (PANMI); experiment: Pre-emergence test, Panicum millenacearum
From the text: (§1) The herbicidal action to be expected, We, for a given combination of two herbicides can be calculated as follows (see COLBY, S. R. “Calculating synergistic and antagonistic response of herbicide combinations”. Weeds 15, pages 20-22; 1967): We=X+[Y·(100−X)/100] wherein: X=% herbicidal action in the case of treatment with active ingredient (A) using an application rate of p kg per hectare, in comparison with untreated control (=0%). Y=% herbicidal action in the case of treatment with active ingredient (B) using an application rate of q kg per hectare, in comparison with untreated control. We=expected herbicidal action (% herbicidal action in comparison with untreated control) after treatment with active ingredient (A) and active ingredient (B) at a rate of application of p+q kg of active ingredient per hectare. If the action actually observed is greater than the expected value We, there is a synergistic effect. Trial Description, Pre-Emergence Test: Monocotyledonous and dicotyledonous test plants are sown in standard soil in plastics pots. The plants tested were: Maize (ZEAMX), Ipomea purpurea (PHBPU), Euphorbia heterophylla (EPHHL), Panicum millenacearum (PANMI). Immediately after sowing, the test compounds in aqueous suspension are applied by spraying (200 litres of water/ha). (A) was formulated as a SC50, and (B1), (B2) and (B3) were formulated as WP25; 1% adjuvant crop oil concentrate (Agridex) (v/v) was added to all treatments. The compounds were applied alone and in combination as tank mixtures. The rates of application depend on the optimum concentrations determined under field conditions and greenhouse conditions. The test plants are then cultivated in a greenhouse under optimum conditions. Evaluation of the tests is made after 21 days (% action, 100%=plants have died, 0%=no phytotoxic action).

[2] = tested on: Sorghum vulgare (SORVU); experiment: Post-emergence test, Sorghum vulgare
From the text: as §1
(§2) Trial Description Post-Emergence Test: The test plants are raised in plastics pots under greenhouse conditions as far as the 2- to 3-leaf stage. A standard soil is used as the cultivation substrate. The plants tested were: Maize (ZEAMX), Ipomea purpurea (PHBPU), Sorghum vulgare (SORVU), Euphorbia heterophylla (EPHHL), Panicum millenacearum (PANMI). At the 2- to 3-leaf stage, the herbicides are applied individually and as mixtures to the test plants. The test compounds are applied in the form of an aqueous suspension in 200 litres of water/ha. (A) was formulated as a SC50, and (B1), (B2) and (B3) were formulated as WP25; 1% adjuvant crop oil concentrate (Agridex) (v/v) was added to all treatments. The compounds were applied alone and in combination as tank mixtures. The rates of application depend on the optimum concentrations determined under field conditions and greenhouse conditions. Evaluation of the tests is made after 21 days (% action, 100%=plants have died, 0%=no phytotoxic action).

[3] = tested on: Ipomea purpurea (PHBPU); experiment: Pre-emergence test, Ipomea purpurea
From the text: as §1

[4] = tested on: Euphorbia heterophylla (EPHHL); experiment: Pre-emergence test, Euphorbia heterophylla
From the text: as §1

[5] = tested on: Maize (ZEAMX); experiment: Post-emergence test, Maize
From the text: as §1, §2

[6] = tested on: Euphorbia heterophylla (EPHHL); experiment: Post-emergence test, Euphorbia heterophylla
From the text: as §1, §2

[7] = tested on: Maize (ZEAMX); experiment: Pre-emergence test, Maize
From the text: as §1

[8] = tested on: Ipomea purpurea (PHBPU); experiment: Post-emergence test, Ipomea purpurea
From the text: as §1, §2

[9] = tested on: Panicum millenacearum (PANMI); experiment: Post-emergence test, Panicum millenacearum
From the text: as §1, §2

CS(=O)(=O)c1ccc(C(=O)C2C(=O)CCCC2=O)c(Cl)c1COCC(F)(F)F [(B2), tembotrione]
Observed plant damage PANMI ([1]; rate 18.75 g/ha): 0%
Observed plant damage PANMI ([1]; rate 37.5 g/ha): 0%
Observed plant damage PANMI ([1]; rate 75 g/ha): 0%
Observed plant damage PANMI ([1]; rate 150 g/ha): 40%
Observed plant damage PANMI ([1]; rate 300 g/ha): 98%
Observed plant damage SORVU ([2]; rate 18.75 g/ha): 0%
Observed plant damage SORVU ([2]; rate 37.5 g/ha): 0%
Observed plant damage SORVU ([2]; rate 75 g/ha): 0%
Observed plant damage SORVU ([2]; rate 150 g/ha): 0%
Observed plant damage SORVU ([2]; rate 300 g/ha): 0%
Observed plant damage PHBPU ([3]; rate 18.75 g/ha): 0%
Observed plant damage PHBPU ([3]; rate 37.5 g/ha): 0%
Observed plant damage PHBPU ([3]; rate 75 g/ha): 0%
Observed plant damage PHBPU ([3]; rate 150 g/ha): 20%
Observed plant damage PHBPU ([3]; rate 300 g/ha): 75%
Observed plant damage EPHHL ([4]; rate 18.75 g/ha): 0%
Observed plant damage EPHHL ([4]; rate 37.5 g/ha): 0%
Observed plant damage EPHHL ([4]; rate 75 g/ha): 0%
Observed plant damage EPHHL ([4]; rate 150 g/ha): 100%
Observed plant damage EPHHL ([4]; rate 300 g/ha): 100%
Observed plant damage ZEAMX ([5]; rate 18.75 g/ha): 0%
Observed plant damage ZEAMX ([5]; rate 37.5 g/ha): 0%
Observed plant damage ZEAMX ([5]; rate 75 g/ha): 0%
Observed plant damage ZEAMX ([5]; rate 150 g/ha): 0%
Observed plant damage ZEAMX ([5]; rate 300 g/ha): 0%
Observed plant damage EPHHL ([6]; rate 18.75 g/ha): 65%
Observed plant damage EPHHL ([6]; rate 37.5 g/ha): 75%
Observed plant damage EPHHL ([6]; rate 75 g/ha): 80%
Observed plant damage EPHHL ([6]; rate 150 g/ha): 98%
Observed plant damage EPHHL ([6]; rate 300 g/ha): 100%
Observed plant damage ZEAMX ([7]; rate 18.75 g/ha): 0%
Observed plant damage ZEAMX ([7]; rate 37.5 g/ha): 0%
Observed plant damage ZEAMX ([7]; rate 75 g/ha): 0%
Observed plant damage ZEAMX ([7]; rate 150 g/ha): 0%
Observed plant damage ZEAMX ([7]; rate 300 g/ha): 0%
Observed plant damage PHBPU ([8]; rate 18.75 g/ha): 0%
Observed plant damage PHBPU ([8]; rate 37.5 g/ha): 25%
Observed plant damage PHBPU ([8]; rate 75 g/ha): 55%
Observed plant damage PHBPU ([8]; rate 150 g/ha): 60%
Observed plant damage PHBPU ([8]; rate 300 g/ha): 60%
Observed plant damage PANMI ([9]; rate 18.75 g/ha): 0%
Observed plant damage PANMI ([9]; rate 37.5 g/ha): 20%
Observed plant damage PANMI ([9]; rate 75 g/ha): 20%
Observed plant damage PANMI ([9]; rate 150 g/ha): 65%
Observed plant damage PANMI ([9]; rate 300 g/ha): 50%

Cc1c(C(=O)c2cnn(C)c2O)ccc(S(C)(=O)=O)c1C1=NOCC1 [(B3), topramezone]
Observed plant damage PANMI ([1]; rate 5 g/ha): 0%
Observed plant damage PANMI ([1]; rate 10 g/ha): 0%
Observed plant damage PANMI ([1]; rate 20 g/ha): 0%
Observed plant damage PANMI ([1]; rate 40 g/ha): 0%
Observed plant damage PANMI ([1]; rate 80 g/ha): 98%
Observed plant damage SORVU ([2]; rate 5 g/ha): 0%
Observed plant damage SORVU ([2]; rate 10 g/ha): 0%
Observed plant damage SORVU ([2]; rate 20 g/ha): 0%
Observed plant damage SORVU ([2]; rate 40 g/ha): 0%
Observed plant damage SORVU ([2]; rate 80 g/ha): 0%
Observed plant damage PHBPU ([3]; rate 5 g/ha): 0%
Observed plant damage PHBPU ([3]; rate 10 g/ha): 0%
Observed plant damage PHBPU ([3]; rate 20 g/ha): 0%
Observed plant damage PHBPU ([3]; rate 40 g/ha): 0%
Observed plant damage PHBPU ([3]; rate 80 g/ha): 55%
Observed plant damage EPHHL ([4]; rate 5 g/ha): 0%
Observed plant damage EPHHL ([4]; rate 10 g/ha): 0%
Observed plant damage EPHHL ([4]; rate 20 g/ha): 0%
Observed plant damage EPHHL ([4]; rate 40 g/ha): 0%
Observed plant damage EPHHL ([4]; rate 80 g/ha): 30%
Observed plant damage ZEAMX ([5]; rate 5 g/ha): 0%
Observed plant damage ZEAMX ([5]; rate 10 g/ha): 0%
Observed plant damage ZEAMX ([5]; rate 20 g/ha): 0%
Observed plant damage ZEAMX ([5]; rate 40 g/ha): 0%
Observed plant damage ZEAMX ([5]; rate 80 g/ha): 20%
Observed plant damage EPHHL ([6]; rate 5 g/ha): 0%
Observed plant damage EPHHL ([6]; rate 10 g/ha): 20%
Observed plant damage EPHHL ([6]; rate 20 g/ha): 50%
Observed plant damage EPHHL ([6]; rate 40 g/ha): 65%
Observed plant damage EPHHL ([6]; rate 80 g/ha): 90%
Observed plant damage ZEAMX ([7]; rate 5 g/ha): 0%
Observed plant damage ZEAMX ([7]; rate 10 g/ha): 0%
Observed plant damage ZEAMX ([7]; rate 20 g/ha): 0%
Observed plant damage ZEAMX ([7]; rate 40 g/ha): 0%
Observed plant damage ZEAMX ([7]; rate 80 g/ha): 0%
Observed plant damage PHBPU ([8]; rate 5 g/ha): 35%
Observed plant damage PHBPU ([8]; rate 10 g/ha): 55%
Observed plant damage PHBPU ([8]; rate 20 g/ha): 20%
Observed plant damage PHBPU ([8]; rate 40 g/ha): 25%
Observed plant damage PHBPU ([8]; rate 80 g/ha): 80%
Observed plant damage PANMI ([9]; rate 5 g/ha): 0%
Observed plant damage PANMI ([9]; rate 10 g/ha): 20%
Observed plant damage PANMI ([9]; rate 20 g/ha): 80%
Observed plant damage PANMI ([9]; rate 40 g/ha): 90%
Observed plant damage PANMI ([9]; rate 80 g/ha): 90%
